According to patent US20250091994A1, “RAS/RAF BINDING INHIBITOR COMPOUND” (NATIONAL UNIVERSITY CORPORATION KOBE UNIVERSITY, priority 2021, published 2025):

What was measured:
[1] = molecular target: GTPγS-bound human HRasG12V / human c-Raf-1 Ras binding domain (RBD) (Homo sapiens (Human), UniProt P01112, G12V); test: Ras-Raf binding inhibition ELISA; settings: anti-HRas antibody C-20; read-out: ELISA IC50 (μM): 1st Ab_C-20
Summary of the method: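 GST-c-Raf-1 RBD (aa 50-131) immobilized on glutathione plates, then GTPγS-loaded full-length HRasG12V added with compound (final 10% DMSO), 1 h at 30 °C, pH 7.4 Tris buffer. Bound Ras detected by anti-HRas antibody (C-20 or 259) and HRP secondary, TMB read at OD450; IC50 from inhibition.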

[2] = system: promyelocytic leukemia cells HL60 (N-RasQ61L); test: Cell growth inhibition, suspension cells HL60; type: cell-based; settings: Homo sapiens, HL-60; 1 μM, 72 hours; read-out: HL-60 (NRasQ61L) % inhibition at 1 μM
Summary of the method: (§1)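 Suspension cells, 2 to 4×10^4 per well, cultured with compound in medium with 0.5% FBS (1% DMSO final) for 72 h at 37° C, 5% CO2. Viable cells counted with Cell Counting Reagent; inhibition calculated relative to controls.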

[3] = system: acute lymphoblastic leukemia cells CCRF-CEM (K-RasG12D); test: Cell growth inhibition, suspension cells CCRF-CEM; type: cell-based; settings: Homo sapiens, 1 μM, 72 hours, read-out: CCRF-CEM (KRasG12D) % inhibition at 1 μM
Summary of the method: as §1

Sequence of GTPγS-bound human HRasG12V / human c-Raf-1 Ras binding domain (RBD) (P01112 whole entry G12V, the tested form may be a part): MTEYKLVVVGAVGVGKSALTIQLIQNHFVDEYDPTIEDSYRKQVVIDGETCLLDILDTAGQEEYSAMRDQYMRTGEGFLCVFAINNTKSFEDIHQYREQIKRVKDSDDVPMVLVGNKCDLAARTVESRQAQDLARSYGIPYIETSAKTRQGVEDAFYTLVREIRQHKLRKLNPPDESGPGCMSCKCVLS

With `CC(=O)N1/C(=C\c2nc3cc(C(=O)N4CCOCC4)ccc3s2)C(=O)c2ccccc21` [Example 47, (Z)-1-acetyl-2-((5-(morpholine-4-carbonyl)benzo [d]thiazol-2-yl)-methylene)-indolin-3-one] the IC50 [1] was 3.9 µM, the inhibition at 1 µM [2] was 89% and the inhibition at 1 µM [3] was 74%.
